Data set [1] deals with HCT116. The experiment in a line: Anti-proliferative activity, sulphorodamine B test. As to conditions: Homo sapiens, HCT-116, 24 h exposure, 48 h recovery. In kind it is cell-based. How it is done: (§1) The biological activity of DHA and ART on tumour cells survival was evaluated. The latter were seeded in 96-well tissue culture plates at approximately 10% confluence and were allowed to attach and recover for at least 24 h before being exposed to DHA or ART for 24 h at 37° C. They were then washed to remove DHA and ART and left to recover for 48 hours in medium culture. The medium culture was then removed and cells were washed three times with PBS. The plates were then incubated for on ice for 1 hour with 200 μl of PBS and 50 μl of cold 80% TCA before being washed with distilled water, dried on paper and finally at 40° C. for 5 minutes. 200 μl of 0.4% sulphorodamine B in 1% acetic acid were added and the incubation was prolonged for 30 minutes. Sulphorodamine B was removed, and the plates were washed 3 times with 1% acetic acid. They were finally dried on paper followed by standing at 40° C. for 5 minutes. Then 200 μl Tris 10 mM were added, the plates were kept under stirring for 20 minutes. Cell survival was determined as optical density at 540 nm by means of a Multiskan spectrofluorimeter. The amount of cells killed was expressed as the percentage decrease in sulphorodamine B binding compared to control cultures. IC50 were generated with their standard deviations by the ALLFIT program.

The test system of data set [2] is LoVo/Dx MDR. The data set is described as follows: Anti-proliferative activity, sulphorodamine B test. It counts as cell-based. Particulars: LoVo/Dx MDR; 24 h exposure, 48 h recovery. The protocol:
as §1

Data set [3] relates to LoVo. The data set is described as follows: Anti-proliferative activity, sulphorodamine B test. In kind it is cell-based. As to conditions: Homo sapiens, 24 h exposure, 48 h recovery. How it is done: as §1
Data set [4] has as its system MCF-7/Dx MDR. The data set is described as follows: Anti-proliferative activity, sulphorodamine B test. It counts as cell-based. As to conditions: for IC50: MCF7/DX, MCF-7/Dx MDR, 24 h exposure, 48 h recovery; for resistance index: MCF-7/Dx MDR versus MCF-7. How it is done:
as §1

In data set [5] the test system is MCF-7. The data set is described as follows: Anti-proliferative activity, sulphorodamine B test. In kind it is cell-based. Particulars: Homo sapiens, MCF7, 24 h exposure, 48 h recovery. The protocol:
as §1

For data set [6], the system named is A2780. The experiment in a line: Anti-proliferative activity, sulphorodamine B test. It counts as cell-based. As to conditions: Homo sapiens, 24 h exposure, 48 h recovery. The protocol: as §1
In data set [7] the test system is HT29. The experiment in a line: Anti-proliferative activity, sulphorodamine B test. It counts as cell-based. Particulars: Homo sapiens, HT-29, 24 h exposure, 48 h recovery. The protocol:
as §1

Data set [8] has as its system NCI-H460. The data set is described as follows: Anti-proliferative activity, sulphorodamine B test. As to conditions: Homo sapiens, 24 h exposure, 48 h recovery. It counts as cell-based. How it is done:
as §1

The test system of data set [9] is SW620. The data set is described as follows: Anti-proliferative activity, sulphorodamine B test. It counts as cell-based. As to conditions: Homo sapiens, SW-620, 24 h exposure, 48 h recovery. How it is done: as §1
Data set [10] relates to NCI-H460 non-small cell lung carcinoma. The data set is described as follows: In vivo antitumor activity, s.c. xenograft in CD1 nude mice. Particulars: DHA 200 mg/kg p.o., AZD2281 100 mg/kg i.p., qdx5/wx3w. How it is done: NCI-H460 non-small cell lung carcinoma cells were inoculated subcutaneously (s.c.) in the right flank of CD1 nude mice (3×10^6/0.1 ml of Medium 199). Treatments started three days after tumour injection. Mice were subdivided (10 mice/group) in the following experimental groups:
(§2) a) Vehicle (DMSO 10%) 10 ml/kg, i.p.;
b) DHA 200 mg/kg, p.o. qdx5/wx3w;
d) AZD2281+DHA (doses and schedules as above).
For the latter experiment DHA was administered immediately before AZD2281.
To evaluate the antitumour activity, tumour diameters were measured with a Vernier calliper according to the formula TV=d^2×D/2 where d and D are the shortest and longest diameters, respectively.
When tumours reached a volume of about 1500 mm^3, mice were sacrificed by cervical dislocation. The efficacy of the drug was assessed as the tumour volume inhibition according to the formula reported underneath: […]
Body weight recording was carried out to evaluate body weight loss as calculated in the equation underneath: […]
Wherein BW day x corresponds to the mean weight at day x of the experiment meanwhile BW day 1 corresponds to the mean weight at the first day of the experiment.

Data set [11] deals with HCT116 colon cancer cells. The experiment in a line: In vivo antitumour activity, s.c. xenograft in CD1 nude mice. Particulars: DHA 200 mg/kg p.o., AZD2281 100 mg/kg i.p., qdx5/wx4w. How it is done:
HCT116 colon cancer cells were inoculated subcutaneously (s.c.) in the right flank of CD1 nude mice (5×10^6/0.1 ml of Medium 199). Treatments started three days after tumour injection. Mice were subdivided (8 mice/group) in the following experimental groups:
as §2
b) DHA 200 mg/kg, p.o. qdx5/wx4w;
d) AZD2281+DHA (doses and schedules as above);
e) ABT-888 50 mg/kg, i.p. qdx5/wx4w;
f) ABT-888+DHA (doses and schedules as above).
DHA was administered immediately before AZD2281 or ABT-888.
The antitumour activity was evaluated according to the protocol reported hereinabove in example 3 when tumours reached a volume of about 500 mm^3.
Body weight recording was carried out to evaluate body weight loss according to the protocol reported hereinabove in example 3.

Bounds are passed on as bounds.

The term IC50 denotes the concentration that gives 50% inhibition. A high value points to a need for much substance. In the case of `C[C@@H]1CC[C@H]2[C@@H](C)C(=O)O[C@@H]3O[C@@]4(C)CC[C@@H]1[C@]32OO4` [ART, artemisinin], the IC50 in [1] is 257000 ± 28800 nM; in data set [2], greater than 200000 nM; in data set [3] it was greater than 200000 nM; in data set [4] it was 187000 ± 70000 nM; in data set [5] it was 45800 ± 11500 nM. The compound further displayed a resistance index in data set [4] of 4.
On to `C[C@H]1[C@@H](O)O[C@@H]2O[C@@]3(C)CC[C@H]4[C@H](C)CC[C@@H]1[C@@]24OO3` [DHA, dihydroartemisinin], for which the IC50 in data set [6] amounted to 230 ± 20 nM; in [1], 370 ± 80 nM; in data set [7], 5800 ± 500 nM; in [2] it was 1180 ± 300 nM; in data set [3], 2570 ± 800 nM; in data set [4], 970 ± 300 nM. Further, the IC50 in data set [5] stood at 1050 ± 80 nM; in data set [8], 8160 ± 500 nM; in data set [9], 1800 ± 100 nM. Besides, the resistance index in data set [4] is given as 0.92. Further, the “tolerability (body weight loss during the treatment)” value in data set [10] (NCI-H460 xenograft mice) is “well-tolerated”; in data set [11] (HCT116 xenograft mice, ABT-888 50 mg/kg) it was “well-tolerated”. Moreover, the BWL % in data set [10] (body weight loss, NCI-H460 xenograft, CD1 nude mice) stood at 0%; in data set [11] (body weight loss, HCT116 xenograft, CD1 nude mice, ABT-888 50 mg/kg i.p.), 1%. In addition, the TVI % in [10] (tumour volume inhibition, NCI-H460 xenograft, CD1 nude mice) came out at 3%; in [11] (tumour volume inhibition, HCT116 xenograft, CD1 nude mice, ABT-888 50 mg/kg i.p.) it was 0%. Further, the “TV ± SE” value in [10] (tumour volume, NCI-H460 xenograft, CD1 nude mice, sacrifice at about 1500 mm^3) is 1575 ± 191; in data set [11] (tumour volume, HCT116 xenograft, CD1 nude mice, ABT-888 50 mg/kg i.p., evaluated at about 500 mm^3) it was 447 ± 39.

The values above are taken from patent US9023861B2, “Anticancer combination of artemisinin-based drugs and other chemotherapeutic agents” (Sigma-Tau Industrie Farmaceutiche Riunite, S.p.A., priority 2009, dated 2015).
